Results taken from patent US6479487B1, “6, 9-disubstituted 2-[trans-(4-aminocyclohexyl)amino] purines” (Aventis Pharmaceuticals Inc., priority 1998, dated 2002).
“And” between values parts separate entries of the source, which are not always exact repeats. Equal entries are not always repeated. Structures can show the parent of a compound that is named as a salt. Where two headings read alike, the source gives them in different places.

Key:
cdk2/cyclin E = biological target: T1, cdk2/cyclin E (Homo sapiens, UniProt P24941); assay: Cyclin-Dependent Kinase 2 Assay (cdk2/cyclin E, GST-Rb substrate); assay type: biochemical; settings: recombinant cdk2/cyclin E, 10 μM ATP, 30 min at 30° C., several values in a cell = separate determinations, read-out: CDK-2 Inhibition IC50
T1 construct: made in house; host or cells: insect cells (baculovirus co-infection)
Description: Substrate: GST-Rb as described above for cdk4/cyclin D1
Assay conditions for cdk2/cyclin E were identical to those for cdk4/cyclin D1 including the substrate. The concentration of recombinant cdk2/cyclin E in the assay was 0.1 μg per 100 μl assay. Incubation was for 30 min at 30° C.

cdk4/cyclin D1 = biological target: T2, cdk4/cyclin D1 (Homo sapiens, UniProt P11802); assay: Cyclin-dependent Kinase 4 Assay (cdk4/cyclin D1, GST-Rb substrate); assay type: biochemical; settings: cdk4/cyclin D1 insect cell lysate, 10 μM ATP, 30 min at 37° C., several values = separate determinations, read-out: CDK4 Inhibition IC50
T2 construct: made in house; host or cells: Sf9 insect cells (Bac-to-Bac baculovirus, pFastBac)
In short: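 IC50 against cdk4 measured by scintillation counting of bead-bound GST-Rb (0.5 μg) after filtration and four TNEN washes. Reaction was 30 min at 37 °C in HEPES pH 7.5 buffer with 10 mM MgCl2 and 1 mM EGTA. Enzyme source was 0.1 μg Sf9 lysate coinfected with cdk4 and cyclin D1.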

MDA-MB-231 = assay: In vitro tumor cell proliferation, MDA-MB-231; assay type: cell-based, human; settings: sulforhodamine B or CyQUANT assay, many values given with an undefined *, read-out: In vitro Tumor Cell Proliferation (IC50, μM) Breast MDA-MB-231
In short: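 Proliferation quantified by SRB staining of TCA-fixed cells after 3 days of drug plus 4 days with replenished drug, following overnight attachment at 37 °C.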

MDA-MB-435 = assay: In vitro tumor cell proliferation, MDA-MB-435; assay type: cell-based; settings: values given with an undefined *, read-out: In vitro Tumor Cell Proliferation (IC50, μM) Breast MDA-MB-435
In short: (§1)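 Cells seeded overnight at 37° C, then exposed to drug diluted in medium; at 3 days medium and drug replenished for another 4 days. Growth read by sulforhodamine B staining after TCA fixation; alternatively by CyQUANT, with plates frozen at −80° C after 3 days of drug.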

HT-29 = assay: In vitro tumor cell proliferation, HT-29; assay type: cell-based, human; settings: many values given with an undefined *, read-out: In vitro Tumor Cell Proliferation (IC50, μM) Colon HT-29
In short: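 Growth was quantified either with CyQUANT, plates frozen at −80° C after 3 days of drug, or by sulforhodamine B staining of TCA-fixed cells after 3 days of drug plus 4 days with fresh drug. Trypan blue-excluding HT-29 cells were plated overnight at 37° C before dosing.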

Colo-205 = assay: In vitro tumor cell proliferation, Colo-205; assay type: cell-based; settings: values given with an undefined *, read-out: In vitro Tumor Cell Proliferation (IC50, μM) Colon Colo-205
In short: as §1

A549 = assay: In vitro tumor cell proliferation, A549; assay type: cell-based, human; settings: many values given with an undefined *, read-out: In vitro Tumor Cell Proliferation (IC50, μM) Lung A549
In short: as §1

DMS-114 = assay: In vitro tumor cell proliferation, DMS-114; assay type: cell-based, human; settings: many values given with an undefined *, read-out: In vitro Tumor Cell Proliferation (IC50, μM) Lung DMS-114
In short: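 Human small cell lung carcinoma DMS-114 cells plated overnight, then drug-treated for 3 days, medium and drug renewed, and incubated 4 more days. Growth read by sulforhodamine B staining after TCA fixation; alternatively by CyQUANT after 3 days' drug exposure and freezing at −80 °C.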

PC-3 = assay: In vitro tumor cell proliferation, PC-3; assay type: cell-based, human; settings: many values given with an undefined *, read-out: In vitro Tumor Cell Proliferation (IC50, μM) Prostate PC-3
In short: as §1

DU145 = assay: In vitro tumor cell proliferation, DU145; assay type: cell-based, human; settings: many values given with an undefined *, read-out: In vitro Tumor Cell Proliferation (IC50, μM) Prostate DU145
In short: as §1

[1] = Homo sapiens, MDA-MB-231, MDA-MB-231
[2] = Homo sapiens, MDA-MB-435, MDA-MB-435
[3] = Homo sapiens, COLO 205, Colo-205

T2 sequence (P11802 whole entry): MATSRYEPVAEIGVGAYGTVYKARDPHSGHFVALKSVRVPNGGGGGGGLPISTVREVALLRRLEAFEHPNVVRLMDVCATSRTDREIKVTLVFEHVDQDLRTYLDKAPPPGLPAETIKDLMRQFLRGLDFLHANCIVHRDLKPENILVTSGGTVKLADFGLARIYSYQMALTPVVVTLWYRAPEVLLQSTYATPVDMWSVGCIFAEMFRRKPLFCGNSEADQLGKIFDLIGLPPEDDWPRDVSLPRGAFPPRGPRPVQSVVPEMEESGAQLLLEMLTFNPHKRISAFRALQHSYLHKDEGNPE
T2 sequence (P24385 whole entry partner): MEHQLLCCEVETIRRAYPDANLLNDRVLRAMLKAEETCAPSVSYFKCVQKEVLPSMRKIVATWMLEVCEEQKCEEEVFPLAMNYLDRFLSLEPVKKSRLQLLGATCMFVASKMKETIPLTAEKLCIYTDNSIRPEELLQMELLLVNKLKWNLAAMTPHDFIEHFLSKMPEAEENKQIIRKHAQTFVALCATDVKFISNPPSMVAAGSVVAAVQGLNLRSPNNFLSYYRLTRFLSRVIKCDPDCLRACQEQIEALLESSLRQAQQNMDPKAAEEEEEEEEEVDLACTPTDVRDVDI

Row | Molecule | IC50 (cdk2/cyclin E) | IC50 (cdk4/cyclin D1) | IC50 (MDA-MB-231; MDA-MB-231, trihydrochloride) [µM] | IC50 (MDA-MB-435; [2]) [µM] | IC50 (MDA-MB-435; MDA-MB-435, trihydrochloride) [µM] | IC50 (HT-29; HT-29, trihydrochloride) [µM] | IC50 (HT-29; Homo sapiens, HT-29, HT-29) [µM] | IC50 (Colo-205; [3]) [µM] | IC50 (A549; A549, trihydrochloride) [µM] | IC50 (A549; Homo sapiens, A549, A549) [µM] | IC50 (DMS-114; DMS-114, trihydrochloride) [µM] | IC50 (DMS-114; Homo sapiens, DMS-114, DMS-114) [µM] | IC50 (PC-3; Homo sapiens, PC-3, PC-3) [µM] | IC50 (PC-3; PC-3, trihydrochloride) [µM] | IC50 (DU145; DU145, trihydrochloride) [µM] | IC50 (DU145; Homo sapiens, DU-145, DU145) [µM] | IC50 (Colo-205; Colo-205, trihydrochloride) [µM] | further results
1 | N[C@H]1CC[C@H](Nc2nc(NC3CCN(Cc4ccc(C(F)(F)F)cc4)CC3)c3ncn(C4CCCC4)c3n2)CC1 [Example 46, 2-[Trans-(4-aminocyclohexyl)amino]-6-[4-(1-(4-trifluoromethylbenzyl))piperidinylamino]-9-cyclopentylpurine] | 0.5 µM and 0.45 µM | 20 µM |  |  |  |  |  |  |  |  |  |  |  |  |  |  |  | IC50 (MDA-MB-231; MDA-MB-231): 0.46 µM and 0.53 µM; IC50 (MDA-MB-435; MDA-MB-435): 0.61 µM and 0.62 µM; IC50 (HT-29; HT-29): 0.53 µM and 0.44 µM; IC50 (Colo-205; Colo-205): 0.44 µM and 0.46 µM; IC50 (A549; A549): 0.28 µM and 0.33 µM; IC50 (DMS-114; DMS-114): 0.35 µM and 0.58 µM; IC50 (PC-3; PC-3): 0.39 µM and 0.46 µM; IC50 (DU145; DU145): 0.36 µM and 0.49 µM
2 | N[C@H]1CC[C@H](Nc2nc(NC3CCN(Cc4cc(Cl)ccc4Cl)CC3)c3ncn(C4CCCC4)c3n2)CC1 [Example 147-r, 2-[Trans-(4-aminocyclohexyl)amino]-6-[4-[1-(2,5-dichlorobenzyl)]piperidinylamino]-9-cyclopentylpurine trihydrochloride] | 0.09 µM and 0.58 µM and 0.55 µM and 0.61 µM | 7.2 µM and 4.3 µM | 0.48 | 0.6 | 0.65 | 0.47 | 0.49 | 0.32 |  | 0.33 | 0.48 | 0.62 | 0.39 | 0.55 | 0.4 | 0.45 | 0.38 | 
3 | 2-[Trans-(4-aminocyclohexyl)amino]-6-[4-(1-(4-methylbenzyl))piperidinylamino]-9-cyclopentylpurine [Example 40] | 0.23 µM and 0.17 µM | 1 µM and 2 µM |  |  |  |  |  |  |  |  |  |  |  |  |  |  |  | IC50 (MDA-MB-231; MDA-MB-231): 0.19 µM and 0.28 µM; IC50 (MDA-MB-435; MDA-MB-435): 0.27 µM; IC50 (HT-29; HT-29): 0.29 µM and 0.27 µM; IC50 (Colo-205; Colo-205): 0.16 µM and 0.18 µM; IC50 (A549; A549): 0.18 µM; IC50 (DMS-114; DMS-114): 0.26 µM; IC50 (PC-3; PC-3): 0.34 µM; IC50 (DU145; DU145): 0.24 µM
4 | N[C@H]1CC[C@H](Nc2nc(NC3CCN(CC4CCCCC4)CC3)c3ncn(C4CCCC4)c3n2)CC1 [Example 147-s, 2-[Trans-(4-aminocyclohexyl)amino]-6-[4-(1-cyclohexylmethyl)piperidinylamino]-9-cyclopentylpurine trihydrochloride] | 0.12 µM and 0.1 µM | 1.3 µM and 0.62 µM | 0.33 | 0.42 | 0.43 | 0.33 | 0.35 | 0.28 | 0.2 | 0.22 | 0.3 | 0.57 |  | 0.37 | 0.27 | 0.29 | 0.23 | 

The next lines start with results.

Row | IC50 (cdk2/cyclin E) | IC50 (cdk4/cyclin D1) | IC50 (MDA-MB-231; MDA-MB-231, trihydrochloride) [µM] | IC50 (MDA-MB-435; [2]) [µM] | IC50 (MDA-MB-435; MDA-MB-435, trihydrochloride) [µM] | IC50 (HT-29; HT-29, trihydrochloride) [µM] | IC50 (HT-29; Homo sapiens, HT-29, HT-29) [µM] | IC50 (Colo-205; [3]) [µM] | IC50 (A549; A549, trihydrochloride) [µM] | IC50 (A549; Homo sapiens, A549, A549) [µM] | IC50 (DMS-114; DMS-114, trihydrochloride) [µM] | IC50 (DMS-114; Homo sapiens, DMS-114, DMS-114) [µM] | IC50 (PC-3; Homo sapiens, PC-3, PC-3) [µM] | IC50 (PC-3; PC-3, trihydrochloride) [µM] | IC50 (DU145; DU145, trihydrochloride) [µM] | IC50 (DU145; Homo sapiens, DU-145, DU145) [µM] | IC50 (Colo-205; Colo-205, trihydrochloride) [µM] | Molecule | further results
5 | 0.2 µM and 0.21 µM | 1.3 µM and 0.72 µM | 0.21 | 0.27 | 0.3 | 0.22 | 0.3 | 0.17 | 0.14 | 0.15 | 0.25 | 0.37 | 0.17 | 0.26 | 0.2 | 0.21 |  | N[C@H]1CC[C@H](Nc2nc(NC3CCN(Cc4cccc(F)c4)CC3)c3ncn(C4CCCC4)c3n2)CC1 [Example 147-j, 2-[Trans-(4-aminocyclohexyl)amino]-6-[4-[1-(3-fluorobenzyl)]piperidinylamino]-9-cyclopentylpurine trihydrochloride] | IC50 (MDA-MB-231; [1]): 0.2 µM
6 | 0.19 µM and 0.14 µM | 0.41 µM | 0.21 | 0.26 | 0.28 | 0.21 | 0.19 | 0.18 |  | 0.12 | 0.13 | 0.19 | 0.2 | 0.18 |  | 0.15 |  | N[C@H]1CC[C@H](Nc2nc(NC3CCN(Cc4ccccc4)CC3)c3ncn(C4CCCC4)c3n2)CC1 [Example 33, 2-[Trans-(4-aminocyclohexyl)amino]-6-[4-(1-benzyl)piperidinylamino]-9-cyclopentylpurine trihydrochloride] | IC50 (MDA-MB-231; [1]): 0.17 µM
7 | 0.2 µM and 0.17 µM | 2.9 µM | 0.32 | 0.39 |  | 0.26 | 0.4 | 0.26 | 0.16 | 0.29 | 0.29 | 0.45 | 0.35 | 0.34 | 0.15 | 0.3 | 0.15 | N[C@H]1CC[C@H](Nc2nc(NC3CCN(Cc4ccccc4F)CC3)c3ncn(C4CCCC4)c3n2)CC1 [Example 147-k, 2-[Trans-(4-aminocyclohexyl)amino]-6-[4-[1-(2-fluorobenzyl)]piperidinylamino]-9-cyclopentylpurine trihydrochloride] | 
